# Laboratory results reported in PubChem BioAssay (NCI).
#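 All cell lines were grown in 96-well plates and treated with compound for 48 hours. GI50: concentration for 50% inhibition of growth. At the TGI there is no net growth.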
# Experiments:
# Assay in all cases: NCI-60 cell line screen, 48 h
# MDA-MB-231 breast = test system: MDA-MB-231 breast
# NCI-H23 lung = test system: NCI-H23 lung
# NCI-H226 lung = test system: NCI-H226 lung
# OVCAR-5 ovarian = test system: OVCAR-5 ovarian
# HL-60(TB) leukemia = test system: HL-60(TB) leukemia
# HCT-15 colon = test system: HCT-15 colon
# DU-145 prostate = test system: DU-145 prostate
# HS 578T breast = test system: HS 578T breast
# COLO 205 colon = test system: COLO 205 colon
# NCI/ADR-RES ovarian = test system: NCI/ADR-RES ovarian
SMILES,GI50 (MDA-MB-231 breast) [µM],TGI (MDA-MB-231 breast) [µM],GI50 (NCI-H23 lung) [µM],TGI (NCI-H23 lung) [µM],GI50 (NCI-H226 lung) [µM],TGI (NCI-H226 lung) [µM],GI50 (OVCAR-5 ovarian) [µM],TGI (OVCAR-5 ovarian) [µM],GI50 (HL-60(TB) leukemia) [µM],TGI (HL-60(TB) leukemia) [µM],GI50 (HCT-15 colon) [µM],TGI (HCT-15 colon) [µM],GI50 (DU-145 prostate) [µM],TGI (DU-145 prostate) [µM],GI50 (HS 578T breast) [µM],TGI (HS 578T breast) [µM],GI50 (COLO 205 colon) [µM],TGI (COLO 205 colon) [µM],GI50 (NCI/ADR-RES ovarian) [µM],TGI (NCI/ADR-RES ovarian) [µM]
COc1cc(/C=C2\C(=O)Nc3ccc(Br)cc32)cc(OC)c1OC,7.68,> 52.9,8.07,66,60.9,> 100,30.6,> 100,4.36,> 100,3.37,> 100,18.7,> 100,2.94,> 78.7,8.18,> 100,4.01,29.4
CCn1c(-c2nonc2N)nc2c(C#CC(C)(C)O)ncc(OC[C@@H]3CCCN3)c21,7.46,> 25,8.64,> 25,8.27,> 24,10.6,> 25,5.63,15,> 25,> 25,4.76,> 22.9,1.72,> 19.5,2.94,7.62,> 25,> 25
COc1ccc(-c2nn(-c3cccc(Cl)c3)cc2-c2cc(-c3cccs3)no2)cc1,3.08,16.9,3.82,20.8,4.11,30.3,7.63,74.1,4.73,38.3,4.48,32.9,7.08,35.8,4.42,45.5,3.21,7.24,4.01,38.1
CC(C)(C)OC(=O)n1c(Cl)c(C(=O)N=C=S)c2ccccc21,15.7,46,28.4,> 100,> 100,> 100,23,94.3,24.4,> 100,30,> 100,36,> 100,25.5,68.2,33.6,> 100,18.5,62.6
COc1ccc(CNC(=O)c2ccc(-c3cc(-c4nnc(C)o4)ccc3C)cc2)cc1,> 25,> 25,17.4,> 25,> 20.4,> 25,> 25,> 25,> 18.5,> 25,19.9,> 25,> 25,> 25,> 25,> 25,> 22.9,> 25,16.1,> 25
Cc1cc(S(N)(=O)=O)c(S/C(=N\NS(=O)(=O)c2ccccc2)c2ccc(Cl)c(Cl)c2)cc1Cl,28.7,> 100,20.3,49.9,45.1,> 100,52.4,> 100,21.7,53.4,46.1,> 100,54.2,> 100,29.9,99.3,45.7,> 100,28.5,77.6
CC(=O)OC1Oc2cc(C)c(C)cc2-c2oc(=O)c(-c3ccccc3)cc21 (stereo not given),0.584,30.9,0.615,> 100,2.77,,5.18,> 100,0.111,0.467,0.323,> 100,0.297,1.2,0.244,1.42,0.385,3.64,0.213,0.908
COc1cccc(C2CC(=O)Nc3cc4c(cc32)CCC4)c1OC (stereo not given),6.17,39.5,3.4,26.1,9.7,44.2,7.67,> 80.3,2.73,7.88,3.63,25.8,3.48,16.1,3.04,34.8,3.13,8.48,2.43,7.14
NCCNc1nc2ccccc2c2c(=O)c3cc(F)cc(Cl)c3sc12,1.48,2.93,1.75,3.42,9.54,31.2,1.65,3.1,1.88,3.76,1.18,2.5,1.73,3.22,1.63,3.7,1.69,3.31,1.81,3.65
Cc1ccc(NCCNCC(O)CO)c2c(=O)c3ccccc3sc12 (stereo not given),1.37,3,1.73,3.54,1.65,3.44,1.74,3.67,1.62,3.7,1.29,2.72,1.28,2.62,2.19,5.9,1.32,3.02,1.67,3.75
Cc1cc(C(=O)Nc2cc(Nc3ncccc3-c3ncnc4nc[nH]c34)ccc2F)cc(C(C)(C)C#N)c1,0.123,5.36,0.379,> 100,0.527,> 100,0.211,> 100,0.167,> 100,2.97,> 100,6.2,> 100,1.92,> 100,0.0526,> 100,2.81,> 100
CNc1ccc(N=Nc2cccc3ncccc23)cc1,7.47,> 100,17.1,> 100,> 100,> 100,0.0278,> 100,4.88,> 100,16.1,> 100,> 100,> 100,24.7,> 100,2.48,> 100,23.3,> 100
Nc1ccc2c(SCC(=O)Nc3ccccc3-c3ccccc3NC(=O)CSc3c4ccccc4nc4cc(N)ccc34)c3ccccc3nc2c1,,> 84,,39.5,,72.6,,> 100,,36.6,,> 93.8,,> 58.7,,> 90,,43,,> 100
COc1ccc(-c2nn(-c3cccc(Cl)c3)cc2/C=C2\C(=N)N(c3ccccc3)N=C2N)cc1,1.25,28.7,4.62,43.5,6.58,> 66.8,2.08,> 65.9,0.414,9.24,0.489,26,1.37,> 47.9,19.6,> 100,1.83,3.92,1.32,> 48.9
O=C1Nc2ccc(Br)cc2C1=Nc1ccc(Cl)cc1,,45.9,,> 100,,58.8,,39.8,,39,,36.8,,> 100,,> 100,,4.71,,62.3
C#CCn1cc(C=C2C(=O)NC(=S)NC2=O)c2cc(Cl)ccc21,1.81,3.62,2.18,5.26,2.82,8.47,1.96,4.12,2.24,6.45,1.98,4.64,1.72,3.22,2.34,7.6,2.22,5.28,3.09,12.8
COc1ccc(-c2conc2-c2ccccc2)cc1,0.615,> 27.5,0.549,> 100,2.42,> 25.6,0.832,> 100,0.288,1.41,0.099,> 100,0.416,,0.267,,0.248,1.42,0.142,> 100
COc1ccc(C2NC(=S)NC3=C2COc2ccc(F)cc23)cc1OC (stereo not given),8.37,53.5,14.1,34.2,16.3,70.4,18.6,48.1,18.5,50.7,18.6,87,33.2,> 100,7.75,38.1,36.2,> 100,18.9,44.4
O=C(Nc1cccc(Cl)c1)c1cc(Cl)ccc1O,1.15,8.23,0.486,3.55,1.05,4.12,3.48,> 100,0.561,3.6,1.34,,1.66,> 54.1,0.282,1.46,2.64,6.71,1.64,> 29.4
COc1ccc(C(=O)/C=C/c2ccc(OCCCCCCCCCCOc3ccc(/C=C/C(=O)c4ccc(OC)c(OC)c4)cc3)cc2)c(OC)c1,,> 100,,,,> 100,,> 100,,> 100,,> 100,,> 100,,> 100,,> 100,,> 100
